{"source": "patent US12195427B2", "about": "“MASP-2 inhibitors and methods of use” (priority 2018, dated 2025)", "key": {"human α-thrombin": {"target": "human α-thrombin (Homo sapiens (Human), UniProt P00734)", "experiment": "Enzymatic Assay for Thrombin (Boc-VPR-AMC)", "assay_type": "biochemical"}, "MASP-2 CCP2-SP": {"target": "MASP-2 CCP2-SP (Homo sapiens (Human), UniProt O00187)", "sequence (O00187 445-686)": "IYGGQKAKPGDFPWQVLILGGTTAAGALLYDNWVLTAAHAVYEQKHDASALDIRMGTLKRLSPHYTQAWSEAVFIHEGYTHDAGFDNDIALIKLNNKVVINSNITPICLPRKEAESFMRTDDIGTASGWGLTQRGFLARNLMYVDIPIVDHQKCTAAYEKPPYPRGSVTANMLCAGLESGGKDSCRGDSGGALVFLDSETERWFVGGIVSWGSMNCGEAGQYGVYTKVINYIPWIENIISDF", "sequence (O00187 364-432 partner)": "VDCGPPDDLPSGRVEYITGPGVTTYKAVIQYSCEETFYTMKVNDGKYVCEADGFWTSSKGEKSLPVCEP", "experiment": "MASP-2 co-crystallization, X-ray crystallography and structure analysis (H-bonds, van der Waals contacts);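 as to Ligand-pharmacophore element distance, pharmacophore element C2: distance from averaged pharmacophore element to bound ligand; missing value means element absent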;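 as to Ligand-pharmacophore element distance, pharmacophore element C3: distance from averaged pharmacophore element to bound ligand; missing value means element absent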;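 as to Ligand-pharmacophore element distance, pharmacophore element C4: distance from averaged pharmacophore element to bound ligand; missing value means element absent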;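 as to Ligand-pharmacophore element distance, pharmacophore element C5: distance from averaged pharmacophore element to bound ligand; missing value means element absent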", "parameters": "van der Waals contact distance, MASP-2 HIS 483 atom CD2 / van der Waals contact distance, MASP-2 HIS 483 atom NE2 / van der Waals contact distance, SER 654 C to compound atom / van der Waals contact distance, SER 654 O to compound atom / van der Waals contact distance, TRP 655 C to compound atom / van der Waals contact distance, MASP-2 GLY 528 atom CA / van der Waals contact distance TRP 655 atom CZ3 / van der Waals contact distance TRP 655 atom N / van der Waals contact distance TRP 655 atom CE3 / van der Waals contact distance GLY 656 atom C / van der Waals contact distance GLY 656 atom CA / van der Waals contact distance GLY 656 atom O / van der Waals contact distance, MASP-2 TYR 607 atom CD1 / van der Waals contact distance, MASP-2 PRO 606 atom O / d(C3,CA1) / d(CA1,N1)2 / d(H4,O1) / d(H4,O2) / d(O1,O2) / d(CA1,O2) / d(CA6,O1) / d(CA6,O2) / d(CA1,C5) / d(O2,H3) / d(N2,C2) / d(CA5,N2) / d(N2,C4) / d(N2,C6) / d(N2,CA3) / d(N2,O3) / d(O4,H2): unit not given beside the values", "method_in_brief": "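First, CCP2-SP constructs with or without a 6His tag are produced in E. coli. Crystals are then soaked once or twice with inhibitor, cryoprotected in 20% glycerol or frozen directly, and diffracted at synchrotron beamlines. Phasing uses molecular replacement with parts of 1Q3X.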"}, "Lectin Pathway": {"system": "Lectin Pathway", "experiment": "Lectin Pathway Activation Assay in Human Serum (mannan-coated ELISA, C3c detection)", "assay_type": "biochemical", "conditions": "1% human serum", "experimental": "Microtiter ELISA plate was coated with mannan from Saccharomyces cerevisiae (Sigma-Aldrich, M7504) for overnight at 4° C. in coating buffer [15 mM Na2CO3, 35 mM NaHCO3]."}, "[1]": {"conditions": "Table A5-1 pharmacophore: distance between elements, S2/S1 region"}, "[2]": {"conditions": "Table A5-2 pharmacophore distance, S3/S4 region"}, "[3]": {"conditions": "Table A7-1, between pharmacophore elements of the bound compound"}, "[4]": {"conditions": "Table A7-2, between pharmacophore elements of the bound compound"}}, "data": [{"compound": "Cc1ccc(-c2c[nH]c(C(=O)N[C@@H](C)C(=O)NCc3ccc(C(=N)N)cc3)c2)cc1F", "note": "[compound 1235, (S)—N-(1-((4-Carbamimidoylbenzyl)amino)-1-oxopropan-2-yl)-4-(3-fluoro-4-methylphenyl)-1H-pyrrole-2-carboxamide]", "values": [{"measurement": "Ki", "setting": "human α-thrombin", "value": "10 to 25", "unit": "µM"}]}, {"compound": "Cc1nc(N)ccc1CNC(=O)[C@H](C)NC(=O)[C@H]1C[C@H](Cc2ccc(-c3ccccc3)cc2)CN1", "note": "[compound 1351, (2R,4S)-4-([1,1′-Biphenyl]-4-ylmethyl)-N—((S)-1-(((6-amino-2-methylpyridin-3-yl)methyl)amino)-1-oxopropan-2-yl)pyrrolidine-2-carboxamide]", "values": [{"measurement": "H-bond distance to MASP-2 ASP 627 atom OD2", "setting": "MASP-2 CCP2-SP; Table A1 (H-Bonds), ASP 627 OD2", "value": 3.22}, {"measurement": "H-bond distance to MASP-2 GLY 656 atom N", "setting": "MASP-2 CCP2-SP; Table A1 (H-Bonds), GLY 656 N", "value": 3.25}, {"measurement": "H-bond distance to MASP-2 GLY 656 atom O", "setting": "MASP-2 CCP2-SP; Table A1 (H-Bonds), GLY 656 O", "value": 2.76}, {"measurement": "H-bond distance to MASP-2 SER 654 atom O", "setting": "MASP-2 CCP2-SP; Table A1 (H-Bonds), SER 654 O", "value": 2.98}, {"measurement": "H-bond distance to MASP-2 SER 657 atom O", "setting": "MASP-2 CCP2-SP; Table A1 (H-Bonds), SER 657 O", "value": 2.8}, {"measurement": "van der Waals contact distance, MASP-2 HIS 483 atom CD2", "setting": "MASP-2 CCP2-SP; Table A2-1", "value": 3.66}, {"measurement": "van der Waals contact distance, MASP-2 HIS 483 atom NE2", "setting": "MASP-2 CCP2-SP; Table A2-1", "value": 3.9}, {"measurement": "van der Waals contact distance, MASP-2 ALA 527 atom CA", "setting": "MASP-2 CCP2-SP; Table A2-2", "value": 3.71}, {"measurement": "van der Waals contact distance, MASP-2 PHE 529 atom CE1", "setting": "MASP-2 CCP2-SP; Table A2-3", "value": 3.8}, {"measurement": "van der Waals contact distance, MASP-2 amino acid atom to compound atom", "setting": "MASP-2 CCP2-SP; Table A2-9, ARG 630, AA atoms CG, CZ", "value": 3.81}, {"measurement": "van der Waals contact distance, VAL 653 CG1 to compound atom", "setting": "MASP-2 CCP2-SP; Table A2-11", "value": 3.3}, {"measurement": "van der Waals contact distance, TRP 655 CA to compound atom", "setting": "MASP-2 CCP2-SP; Table A2-12", "value": 3.34}, {"measurement": "Ligand-pharmacophore element distance, pharmacophore element C2", "setting": "MASP-2 CCP2-SP; Table A4-1, element C2", "value": 0}, {"measurement": "Ligand-pharmacophore element distance, pharmacophore element C3", "setting": "MASP-2 CCP2-SP; Table A4-1, element C3", "value": 0.12}, {"measurement": "Ligand-pharmacophore element distance, pharmacophore element C4", "setting": "MASP-2 CCP2-SP; Table A4-1, element C4", "value": 0}, {"measurement": "Ligand-pharmacophore element distance, pharmacophore element C5", "setting": "MASP-2 CCP2-SP; Table A4-1, element C5", "value": 0}, {"measurement": "Ligand-pharmacophore element distance, pharmacophore element C6", "setting": "MASP-2 CCP2-SP; Table A4-1, element C6", "value": 0}, {"measurement": "Ligand-pharmacophore element distance, pharmacophore element C7", "setting": "MASP-2 CCP2-SP; Table A4-1, element C7", "value": 0}, {"measurement": "Ligand-pharmacophore element distance, pharmacophore element CA1", "setting": "MASP-2 CCP2-SP; Table A4-1, element CA1", "value": 0.57}, {"measurement": "Ligand-pharmacophore element distance, pharmacophore element CA2", "setting": "MASP-2 CCP2-SP; Table A4-1, element CA2", "value": 0.8}, {"measurement": "Ligand-pharmacophore element distance, pharmacophore element CA3", "setting": "MASP-2 CCP2-SP; Table A4-1, element CA3", "value": 0}, {"measurement": "Ligand-pharmacophore element distance, pharmacophore element CA4", "setting": "MASP-2 CCP2-SP; Table A4-1, element CA4", "value": 3.3}, {"measurement": "Ligand-pharmacophore element distance, pharmacophore element CA5", "setting": "MASP-2 CCP2-SP; Table A4-1, element CA5", "value": 0}, {"measurement": "Ligand-pharmacophore element distance, pharmacophore element CA6", "setting": "MASP-2 CCP2-SP; Table A4-1, element CA6", "value": 0}, {"measurement": "d(C3,CA1)", "setting": "MASP-2 CCP2-SP; [1]", "value": 2.85}, {"measurement": "d(CA1,N1)2", "setting": "MASP-2 CCP2-SP; [1]", "value": 1.38}, {"measurement": "d(CA1,O1)", "setting": "MASP-2 CCP2-SP; [1]", "value": 4.47}, {"measurement": "d(CA1,O2)", "setting": "MASP-2 CCP2-SP; [1]", "value": 3.79}, {"measurement": "d(H4,O1)", "setting": "MASP-2 CCP2-SP; [1]", "value": 4.47}, {"measurement": "d(H4,O2)", "setting": "MASP-2 CCP2-SP; [1]", "value": 3.70}, {"measurement": "d(O1,O2)", "setting": "MASP-2 CCP2-SP; [1]", "value": 3.38}, {"measurement": "d(N2,CA2)", "setting": "MASP-2 CCP2-SP; [2]", "value": 6.12}, {"measurement": "d(O2,H3)", "setting": "MASP-2 CCP2-SP; [2]", "value": 4.26}, {"measurement": "d(O2,N2)", "setting": "MASP-2 CCP2-SP; [2]", "value": 2.76}, {"measurement": "a(C3, CA1, O1)", "setting": "MASP-2 CCP2-SP; Table A6-1 pharmacophore angle", "value": 149.86}, {"measurement": "a(CA1, O1, O2)", "setting": "MASP-2 CCP2-SP; Table A6-1 pharmacophore angle", "value": 103.11}, {"measurement": "a(O1, O2, H4)", "setting": "MASP-2 CCP2-SP; Table A6-1 pharmacophore angle", "value": 132.32}, {"measurement": "a(N1, CA1, O1) b)", "setting": "MASP-2 CCP2-SP; Table A6-1 pharmacophore angle, Methyl-amino-pyridine compounds", "value": 173.60}, {"measurement": "a(O1, O2, H3)", "setting": "MASP-2 CCP2-SP; Table A6-2 pharmacophore angle", "value": 148.60}, {"measurement": "a(O1, O2, N2)", "setting": "MASP-2 CCP2-SP; Table A6-2 pharmacophore angle", "value": 141.59}, {"measurement": "a(O2, N2, CA2)", "setting": "MASP-2 CCP2-SP; Table A6-2 pharmacophore angle", "value": 158.04}, {"measurement": "Pharmacophore torsion angle a(C3, CA1, O1, H4)", "setting": "MASP-2 CCP2-SP; [3]", "value": 26.55}, {"measurement": "Pharmacophore torsion angle a(H4, O1, O2, H3)", "setting": "MASP-2 CCP2-SP; [3]", "value": 51.88}, {"measurement": "Pharmacophore torsion angle a(H4, O1, O2, N2)", "setting": "MASP-2 CCP2-SP; [3]", "value": 138.69}, {"measurement": "Pharmacophore torsion angle a(N1, CA1, O1, H4)", "setting": "MASP-2 CCP2-SP; [3]", "value": "−0.13"}, {"measurement": "Pharmacophore torsion angle a(O1, H4, O2, CA1)", "setting": "MASP-2 CCP2-SP; [3]", "value": "−83.97"}, {"measurement": "Pharmacophore torsion angle a(O1, O2, N2, CA2)", "setting": "MASP-2 CCP2-SP; [4]", "value": 121.52}, {"measurement": "Pharmacophore torsion angle a(O1, O2, N2, CA4)", "setting": "MASP-2 CCP2-SP; [4]", "value": 119.61}, {"measurement": "IC50", "setting": "Lectin Pathway", "value": "< 0.05", "unit": "µM"}]}]}
